Tests used:
anesthetized rabbit [1] = assay: In vivo Comparative Erectile Responses—II: intracavernosal blood pressure (ICP) and duration; parameters: species or system White New Zealand male rabbits
Description: White New Zealand male rabbits (2.6-3.0 kg) were anesthetized with pentobarbital sodium (30 mg/kg). The femoral artery was exposed and indwelled with PE 50 tubing connected to a transducer for recording systemic arterial blood pressure. The ventral aspect of the penis was then exposed via surgical cut and intracavernosal blood pressure was measured using a 23 gauge needle inserted to the corpus cavernosum. The contralateral corpus cavemosum was implanted with a 23 gauge needle for the administration of drugs.
Following all surgical procedures, rabbits were allowed to rest for 10 minutes during which intracavernosal blood pressure (ICP) and mean arterial blood pressure (MABP) were continuously recorded.
Drugs at various concentrations were prepared as aqueous solution (injection volume of 200 μL). Following drug injection the tubing was flushed with 100 μL distilled water. All drug treatments were administered after stable intracavernosal and systemic blood pressures were established. If an increase in intracavernosal blood pressure (ICP) was observed, the effect was monitored throughout its entire duration.
The following parameters were obtained from each experimental recording: (i) Maximum ICP (mm Hg), (ii) Duration (minutes), defined as the time in minutes, that the increase in ICP is greater than the 50% difference between baseline and maximum response. Data were analyzed using ANOVA statistical analysis (p<0.05).

anesthetized rabbit [2] = assay: In Vivo Comparative Erectile Responses—I: systemic blood pressure after intracavernosal injection; parameters: species or system Male New Zealand white rabbits; conditions: 500 μg, FIG. 5A
Description: (§1) Male New Zealand white rabbits weighing 2.5 kg were used as the animal model. Animals were first relaxed with an i.m. injection of 25 mg/kg ketamine prior to anesthesia with a bolus i.v. injection of 10 mg/kg Profol and maintained with i.v. infusion at 0.5 mg/kg/minutes. Ventilation of the animals was performed with 1% halothane plus 0.8 L/min O2 and 1 L/min N2O. A 22 gauge angiocatheter was placed in the femoral artery for measurement of systemic blood pressure. A dorsal incision was made in the penis and the corpora cavemosum exposed and cannulated with a 21 gauge butterfly needle to measure intracavernosal pressure.
(§2) Drugs at various concentrations were delivered intracavernosally at a volume of 150 μl through a 25 gauge needle. A 150 μl solution of a mixture of papaverine ([…]), phentolamine ([…]) and prostaglandin El (10 μg/ml) (pap/phent/PGE1) was injected in the corpora as a standard solution for comparison with the response of yohimbine, Example 1, Example 2, and the combination of yohimbine and Example 1. This pap/phent/PGE1 mixture is considered to cause a maximal erection-inducing effect.

anesthetized rabbit [3] = assay: In Vivo Comparative Erectile Responses—I: intracavernosal pressure after intracavernosal injection; parameters: species or system Male New Zealand white rabbits
Description: as §1, §2

Cc1cc(OCCN(C)C)c(C(C)C)cc1OC(=O)CCC(=O)OCCC1(SN=O)C2CC3CC(C2)CC1C3.O=C(O)/C=C/C(=O)O (centres unmarked) [Example 10, 4-[2-(dimethylamino)ethoxy]-2-methyl-5-(methylethyl)phenyl 2-[2-(nitrosothio)adamantan-2-yl]ethyl butane-1,4-dioate, Fumaric Acid Salt]
peak erectile response, increase of ICP (magnitude) (anesthetized rabbit [1]; 1.07 mg, FIG. 10): moderate | duration of the erectile response (anesthetized rabbit [1]; 1.07 mg, FIG. 11): short-lasting | duration of increase in intracavernosal pressure (anesthetized rabbit [1]; 2.13 mg): robust effect | magnitude of increase in intracavernosal pressure (anesthetized rabbit [1]; 2.13 mg): robust effect | duration of increase in intracavernosal pressure (anesthetized rabbit [1]; 4.26 mg): robust effect | duration of the erectile response (anesthetized rabbit [1]; 4.26 mg): exceeded 120 minutes | magnitude of increase in intracavernosal pressure (anesthetized rabbit [1]; 4.26 mg): robust effect

2-Acyl-17α(3-methyl-3-(nitrosothio)butanoxy)yohimban-16α-carboxylic Acid methyl ester hydrochloride Salt [Example 2]
effect on systemic blood pressure (anesthetized rabbit [2]): did not produce any effect on systemic blood pressure | duration of the erectile response (anesthetized rabbit [3]; 500 μg and 1 mg, FIG. 4): longer duration of action compared to yohimbine | percent peak erectile response relative to pap/phent/PGE1 (anesthetized rabbit [3]; 500 μg dose): equipotent to the standard dose of pap/phent/PGE1 | percent peak erectile response relative to pap/phent/PGE1 (anesthetized rabbit [3]; 1 mg dose): at least equal to or more efficacious than the standard dose of the pap/phent/PGE1 mixture

4-[2-(Dimethylamino)ethoxy]-2-methyl-5-(methylethyl)phenyl 2-({N-[2-methyl-2-(nitrosothio)propyl]carbamoyl}methoxy)acetate, Fumaric Acid Salt [Example 9]
doses needed to produce a robust increase of ICP (anesthetized rabbit [1]; 0.2-1.6 mg tested, FIG. 8 to FIG. 11): lower than the doses of Example 10 | duration of the erectile response (anesthetized rabbit [1]; 0.2-1.6 mg tested, FIG. 9): somewhat shorter than that of Example 10

N[C@@H](CCC(=O)N[C@@H](CSN=O)C(=O)NCC(=O)O)C(=O)O [Example 1, 4-(N-{(1R)-1-[N-(carboxymethyl)carbamoyl]-2-(nitrosothio)ethyl}carbamoyl)(2S)-2-aminobutanoic Acid]
percent peak erectile response relative to pap/phent/PGE1 (anesthetized rabbit [3]; 500 μg dose): near maximal response | duration of the erectile response (anesthetized rabbit [3]; 500 μg, FIG. 2): much longer duration of action

COC(=O)[C@@H]1[C@H]2C[C@H]3c4[nH]c5ccccc5c4CCN3C[C@@H]2CC[C@@H]1O [yohimbine, reference compound]
percent peak erectile response relative to pap/phent/PGE1 (anesthetized rabbit [3]; 150 μg and 500 μg, FIG. 1): dose dependently induced erectile response | duration of the erectile response (anesthetized rabbit [3]; submaximal (150 μg) and maximal (500 μg) efficacy doses, FIG. 2): very short duration of action

Cc1cc(OCCN(C)C)c(C(C)C)cc1OC(=O)CC(C)(C)SN=O.Cl [Example 6, 4-[2-(Dimethylamino)ethoxy]-2-methyl-5-(methylethyl)phenyl 3-methyl-3-(nitrosothio)butanoate Hydrochloride]
percent peak erectile response relative to pap/phent/PGE1 (anesthetized rabbit [3]; 1 mg dose): more efficacious than 1 mg moxisylyte | duration of the erectile response (anesthetized rabbit [3]; 1 mg, FIG. 7): longer duration of erectile response compared to 1 mg moxisylyte | duration of the erectile response (anesthetized rabbit [3]; 2 mg, FIG. 7): much longer duration of action compared to 2 mg moxisylyte
